Earlier results as cited in US20120141611A1, “METHODS AND COMPOSITIONS USING ERGOTHIONEINE TO TREAT A VARIETY OF HEALTH RELATED FACTORS” (Oxis International Inc., priority 2010, published 2012).
Converted amounts (≈) assume the structure as drawn. “And” between values parts separate entries of the source, which are not always exact repeats. Identical values can stand only once. “Also recorded” adds a separate entry of the source. Like-named read-outs stand apart in the source and are kept apart here.

Legend:
[1] = Rat, cited from earlier work
[2] = Dog, cited from earlier work
[3] = Ox; cited from earlier work
[4] = Pig; cited from earlier work
[5] = TLC densitometry, cited from earlier work
[6] = rat; cited from earlier work
[7] = cited from earlier work
[8] = animal studies, in the diet; cited from earlier work
[9] = into the organs, principally the liver; cited from earlier work
[10] = cited from earlier work; remark: listed apart in the source
[11] = room temperature; cited from earlier work
[12] = physiologic pH, does not auto-oxidize; cited from earlier work
Mn-superoxide dismutase = biological target: T1, Mn-superoxide dismutase (Mus musculus, UniProt P09671); details: 12.5 mM; cited from earlier work
T1 sequence (P09671 25-222): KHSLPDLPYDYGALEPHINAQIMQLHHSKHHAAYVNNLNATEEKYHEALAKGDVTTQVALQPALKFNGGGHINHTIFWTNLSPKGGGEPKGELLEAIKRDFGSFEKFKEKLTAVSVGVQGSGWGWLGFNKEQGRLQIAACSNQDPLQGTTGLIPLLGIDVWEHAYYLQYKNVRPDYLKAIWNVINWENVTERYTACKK

Cu/Zn SOD = Cu/Zn SOD (Mus musculus, UniProt P08228); details: 12.5 mM; cited from earlier work
isolated rabbit heart = details: cited from earlier work
erythrocytes [13] = details: added to hemolyzed erythrocytes or erythrocyte suspensions; cited from earlier work
erythrocytes [14] = details: rats, administered in the diet; cited from earlier work
mouse skin = details: UV-induced skin damage; cited from earlier work
[15] = low concentrations; cited from earlier work
spermatozoa = details: cited from earlier work
A549 cells = details: cited from earlier work
rat retina = details: NMDA, cited from earlier work
[16] = physiological concentrations; cited from earlier work
[17] = animal experimental model of diabetes; cited from earlier work
[18] = ergothioneine ingestion or administration, humans or animals; cited from earlier work
cerebellum = details: decerebrate rabbit; cited from earlier work
[19] = cited from earlier work; remark: listed apart in the source
[20] = <1 nmol/gm liver versus dietary-augmented animals 1400 nmol/gm liver; cited from earlier work
[21] = 225 g rat, controlled diet of ergothioneine supplementation

Chain of Cu/Zn SOD (P08228 whole entry): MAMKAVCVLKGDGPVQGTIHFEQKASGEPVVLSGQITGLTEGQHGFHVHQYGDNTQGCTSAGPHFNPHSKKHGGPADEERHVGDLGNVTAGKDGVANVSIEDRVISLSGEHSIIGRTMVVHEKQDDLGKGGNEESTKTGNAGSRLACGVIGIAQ

C[N+](C)(C)[C@@H](Cc1c[nH]c(=S)[nH]1)C(=O)[O-] [Ergothioneine, ergothioneine]
Concentration of LE in tissue ([1]; Heart): 1.5 mgs/100 gm fresh tissue | Concentration of LE in tissue ([1]; Intestine): 0.6 mgs/100 gm fresh tissue | Concentration of LE in tissue ([1]; Kidney): 4.3 mgs/100 gm fresh tissue | Concentration of LE in tissue ([1]; Liver): 13.3 mgs/100 gm fresh tissue | Concentration of LE in tissue ([1]; Lungs): 1.5 mgs/100 gm fresh tissue | Concentration of LE in tissue ([1]; Muscle): 0.7 mgs/100 gm fresh tissue | Concentration of LE in tissue ([1]; Plasma): 0.0 mgs/100 gm fresh tissue | Concentration of LE in tissue ([1]; RBC): 10.4 mgs/100 gm fresh tissue | Concentration of LE in tissue ([1]; Spleen): 1.1 mgs/100 gm fresh tissue | Concentration of LE in tissue ([1]; Stomach): 0.4 mgs/100 gm fresh tissue | Concentration of LE in tissue ([1]; Testes): 0.0 mgs/100 gm fresh tissue | Concentration of l-ergothioneine in the blood [1]: 1-6 mg/100 ml blood | Concentration of LE in tissue ([2]; Heart): 8.9 mgs/100 gm fresh tissue | Concentration of LE in tissue ([2]; Kidney): 1.6 mgs/100 gm fresh tissue | Concentration of LE in tissue ([2]; Liver): 0.9 mgs/100 gm fresh tissue | Concentration of LE in tissue ([2]; Lungs): 0.6 mgs/100 gm fresh tissue | Concentration of LE in tissue ([2]; RBC): 6.6 mgs/100 gm fresh tissue | Concentration of LE in tissue ([2]; Spleen): 1.1 mgs/100 gm fresh tissue | Concentration of LE in tissue ([2]; Testes): 0.0 mgs/100 gm fresh tissue | Concentration of l-ergothioneine in the blood [2]: 3-6 mg/100 ml blood | Concentration of l-ergothioneine in the blood [3]: 0.5-2 mg/100 ml blood | Concentration of l-ergothioneine in the blood [4]: 3-27 mg/100 ml blood | Level in rat tissue ([5]; brain): 0.41 mg/100 g | Level in rat tissue ([5]; kidney): 1.58 mg/100 g | Level in rat tissue ([5]; liver): 7.82 mg/100 g | Level in rat tissue ([5]; plasma): 0.21 mg/100 g | Level in rat tissue ([5]; testicle): 0.5 mg/100 g | Whole body half-life [6]: approximately 30 days | Absorptive gain per day [7, 21]: 20 µg/day | Fecal and urine loss [7, 21]: 2 ug/per day | Fraction of dietary ergothioneine absorbed ([7]; 225 gm rat, 20 ug/day in the diet (Mayumi et al.)): 90% | Time to double the total body amount of ergothioneine ([7]; rat, 89 ug ergothioneine/kg-day supplementation): approximately 2 months | Accumulation rate ([7]; rat, from gain and loss per day): 90% | Dietary level producing measurable changes in circulating whole blood levels [8]: 1 part per 100,000 | Disappearance from the plasma after intravenous administration [9]: rapid disappearance | Sulfur label recovered in the urine as free sulfate ([10]; 35S-ergothioneine): 35-65% | Dose recovered by urinary excretion ([10]; bolus injected, in approximately 6 hours): 60% | Share of urine products identified as ergothioneine ([10]; bolus injected): About one-third | Share of urine products identified as hercynine ([10]; bolus injected): About one-third | Solubility limit [11]: 0.9 M (≈ 206 mg/mL) | Stability in aqueous solution [12]: very stable in aqueous solution | Mitochondrial Mn-superoxide dismutase activity (Mn-superoxide dismutase): nearly doubled | Cytosolic Cu/Zn SOD activity (Cu/Zn SOD): no increased activity | Protection against ischemia-reperfusion injury (isolated rabbit heart): failed to protect | Lactate production (erythrocytes [13]): increased lactate production | Erythrocyte lactate level on starvation (erythrocytes [14]): prevented a 40% starvation-induced diminution | Protection of mouse skin in vivo (mouse skin): failed to protect mouse skin in vivo | Radioprotection in vitro [15]: very potent radioprotector even at low concentrations | Effect on spermatozoa viability and survival under hydrogen peroxide (spermatozoa): counteracts the effects of hydrogen peroxide on spermatozoa viability and survival | H2O2 and TNF-alpha imposed oxidative stress in IL-8-CAT reporter system (A549 cells): inhibits | Loss of nonganglion cells (rat retina; rats treated with ergothioneine (43% without)): 31% | Loss of ganglion cells (rat retina; rats treated with ergothioneine (81% without)): 44% | Ameloid Precursor Protein (APP) (rat retina): significant decreases | Inactivation of hydroxyl radical [16]: potent diffusion-controlled inactivation | Developmental defects of embryos [17]: reverse the developmental defects to almost that of the control group | Deleterious / negative side effects [18]: No documented negative side effects; also recorded: no deleterious effects | Action on the electrical activity of the cerebellum (cerebellum): some excitatory action | Concentration of LE in the lens of the human eye ([19]; Hypermature cataract): 60.8 mg LE/100 gm and 60.8 +/− 9.8 mg LE/100 gm | Concentration of LE in the lens of the human eye ([19]; Immature cortical cataract): 79.6 mg LE/100 gm and 79.4 +/− 11.7 mg LE/100 gm | Concentration of LE in the lens of the human eye ([19]; Immature nuclear cataract): 94.2 mg LE/100 gm and 94.2 +/− 7.3 mg LE/100 gm | Concentration of LE in the lens of the human eye ([19]; Mature cataract): 71.7 mg LE/100 gm and 71.7 +/− 13.7 mg LE/100 gm | Concentration of LE in the lens of the human eye ([19]; Normal lens): 115.7 mg LE/100 gm and 115.7 +/− 6.3 mg LE/100 gm | Increase in hepatic lipid peroxidation in partially LE-deficient rats [20]: 40%
